Experimental data taken from PubChem BioAssay (NCI).
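Five concentrations, 48 hours, 96-well plates. At the GI50, growth is halved. TGI: total growth inhibition.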

What was measured:
Assay in all cases: DTP human tumour cell line panel, 48 h
A549 NSCLC = tested on: A549 NSCLC
COLO 205 colon = tested on: COLO 205 colon
HOP-92 NSCLC = tested on: HOP-92 NSCLC
HT29 colon = tested on: HT29 colon
RPMI-8226 leukemia = tested on: RPMI-8226 leukemia
SK-MEL-5 melanoma = tested on: SK-MEL-5 melanoma
UO-31 renal = tested on: UO-31 renal
DU-145 prostate = tested on: DU-145 prostate
HS 578T breast = tested on: HS 578T breast
MDA-MB-231 breast = tested on: MDA-MB-231 breast

## CCOc1ccc(-c2oc(/C=N/NS(=O)(=O)c3ccc(C)cc3)c([N+](=O)[O-])c2-c2ccc(OCC)cc2)cc1
A549 NSCLC
  TGI: 65.6 µM
COLO 205 colon
  TGI: 37.2 µM
HOP-92 NSCLC
  TGI: 31.5 µM
HT29 colon
  TGI: 20.7 µM
RPMI-8226 leukemia
  TGI: 5.12 µM
SK-MEL-5 melanoma
  TGI: 21.2 µM
UO-31 renal
  TGI: 28.7 µM

## C[N+](C)=c1nc(N2CCOCC2)ss1
A549 NSCLC
  TGI: > 100 µM
HOP-92 NSCLC
  TGI: > 100 µM
HT29 colon
  TGI: > 100 µM
SK-MEL-5 melanoma
  TGI: > 100 µM
UO-31 renal
  TGI: > 100 µM

## NC(=O)c1c[se]c(C2OC(COP(=O)(O)CP(=O)(O)OCC3OC(n4cnc5c(N)ncnc54)C(O)C3O)C(O)C2O)n1 (stereo not given)
A549 NSCLC
  TGI: > 100 µM
COLO 205 colon
  TGI: > 100 µM
HOP-92 NSCLC
  TGI: > 100 µM
HT29 colon
  TGI: > 100 µM
SK-MEL-5 melanoma
  TGI: > 100 µM
UO-31 renal
  TGI: > 100 µM

## CCCCCCCCCC(=O)Oc1cccc2onc(C)c12
A549 NSCLC
  TGI: > 100 µM
COLO 205 colon
  TGI: > 100 µM
HOP-92 NSCLC
  TGI: > 100 µM
HT29 colon
  TGI: > 100 µM
RPMI-8226 leukemia
  TGI: > 100 µM
SK-MEL-5 melanoma
  TGI: > 100 µM
UO-31 renal
  TGI: > 100 µM

## COC(=O)C1(F)C(=O)NC(=O)NC1OC (stereo not given)
A549 NSCLC
  TGI: > 100 µM
COLO 205 colon
  TGI: > 100 µM
HOP-92 NSCLC
  TGI: > 100 µM
HT29 colon
  TGI: > 100 µM
RPMI-8226 leukemia
  TGI: > 100 µM
SK-MEL-5 melanoma
  TGI: > 100 µM
UO-31 renal
  TGI: > 100 µM

## CC1(C)OC(COCCOCCCCCO)C(COCCOCCCCCO)O1 (stereo not given)
A549 NSCLC
  TGI: > 100 µM
COLO 205 colon
  TGI: > 100 µM
HT29 colon
  TGI: > 100 µM
RPMI-8226 leukemia
  TGI: > 100 µM
SK-MEL-5 melanoma
  TGI: > 100 µM
UO-31 renal
  TGI: > 100 µM

## c1ccc(NC[Si]23OCCN(CCO2)CCO3)cc1
A549 NSCLC
  TGI: > 100 µM
COLO 205 colon
  TGI: > 100 µM
HOP-92 NSCLC
  TGI: > 100 µM
HT29 colon
  TGI: > 100 µM
RPMI-8226 leukemia
  TGI: > 100 µM
SK-MEL-5 melanoma
  TGI: > 100 µM
UO-31 renal
  TGI: > 100 µM

## COc1cc(O)c(C(C)=O)c(O)c1
A549 NSCLC
  TGI: > 100 µM
COLO 205 colon
  TGI: > 100 µM
DU-145 prostate
  TGI: > 100 µM
HOP-92 NSCLC
  TGI: 90.8 µM
HS 578T breast
  TGI: > 100 µM
HT29 colon
  TGI: > 100 µM
SK-MEL-5 melanoma
  TGI: > 100 µM
UO-31 renal
  TGI: > 100 µM

## Cc1nnc(N=Nc2c(O)[nH]c3ccccc23)n1N
A549 NSCLC
  TGI: > 100 µM
COLO 205 colon
  TGI: > 100 µM
HT29 colon
  TGI: > 100 µM
RPMI-8226 leukemia
  TGI: > 100 µM
SK-MEL-5 melanoma
  TGI: > 100 µM
UO-31 renal
  TGI: > 100 µM

## O=[N+]([O-])C1C2C=CC(C2)[C@H]1c1ccc(Cl)cc1Cl (stereo not given in full)
A549 NSCLC
  TGI: > 100 µM
HOP-92 NSCLC
  TGI: > 100 µM
HT29 colon
  TGI: 57.4 µM
RPMI-8226 leukemia
  TGI: 69.1 µM
SK-MEL-5 melanoma
  TGI: 24.7 µM
UO-31 renal
  TGI: 67.2 µM

## CC1(C)CC(=O)c2c(oc3cc(O)c(O)cc23)C1
A549 NSCLC
  TGI: > 100 µM
COLO 205 colon
  TGI: > 100 µM
HOP-92 NSCLC
  TGI: 95.2 µM
HT29 colon
  TGI: > 100 µM
RPMI-8226 leukemia
  TGI: 80.4 µM
SK-MEL-5 melanoma
  TGI: 32.5 µM
UO-31 renal
  TGI: > 100 µM

## CC(c1ccccc1)N1CC(C)(c2ccccc2)N(O)C(c2ccccc2)C1C (stereo not given)
A549 NSCLC
  TGI: 37.8 µM
COLO 205 colon
  TGI: 23.7 µM
HOP-92 NSCLC
  TGI: 8.36 µM
HT29 colon
  TGI: > 100 µM
RPMI-8226 leukemia
  TGI: 62.8 µM
UO-31 renal
  TGI: 10.2 µM

## CCCn1cnc2c(SCc3ccccc3)nc(N)nc21
A549 NSCLC
  GI50: 77.8 µM
  TGI: > 100 µM
COLO 205 colon
  GI50: > 100 µM
  TGI: > 100 µM
DU-145 prostate
  GI50: > 100 µM
  TGI: > 100 µM
HS 578T breast
  GI50: > 100 µM
  TGI: > 100 µM
HT29 colon
  GI50: > 100 µM
  TGI: > 100 µM
MDA-MB-231 breast
  GI50: > 100 µM
  TGI: > 100 µM
RPMI-8226 leukemia
  GI50: 41.6 µM
  TGI: > 100 µM
SK-MEL-5 melanoma
  GI50: 21.2 µM
  TGI: > 100 µM
UO-31 renal
  GI50: 67.7 µM
  TGI: > 100 µM

## O=C(Nc1ccc(Cl)cc1)Nc1ccccc1CNc1nc(Nc2ccc(OCCN3CCCC3)cc2)ncc1Cl
A549 NSCLC
  GI50: 1.49 µM
  TGI: 4.49 µM
DU-145 prostate
  GI50: 1.22 µM
  TGI: 2.79 µM
HOP-92 NSCLC
  GI50: 0.985 µM
  TGI: 2.77 µM
HS 578T breast
  GI50: 7.02 µM
  TGI: 19 µM
HT29 colon
  GI50: 1.19 µM
  TGI: 3.28 µM
MDA-MB-231 breast
  GI50: 0.888 µM
  TGI: 1.84 µM
RPMI-8226 leukemia
  GI50: 1.24 µM
  TGI: 3.19 µM
SK-MEL-5 melanoma
  GI50: 0.845 µM
  TGI: 1.53 µM
UO-31 renal
  GI50: 0.782 µM
  TGI: 1.59 µM

## Cc1ccccc1NC(=O)C(=O)CC(=O)c1ccc([N+](=O)[O-])cc1
A549 NSCLC
  TGI: > 100 µM
COLO 205 colon
  TGI: > 100 µM
HOP-92 NSCLC
  TGI: > 100 µM
HT29 colon
  TGI: > 100 µM
RPMI-8226 leukemia
  TGI: > 100 µM
UO-31 renal
  TGI: > 100 µM

## CC(C)(C)[Si](C)(C)OCC1OC(n2cnc3c(N)ncnc32)C(O)C1O (stereo not given)
A549 NSCLC
  TGI: > 100 µM
COLO 205 colon
  TGI: > 100 µM
DU-145 prostate
  TGI: > 100 µM
HS 578T breast
  TGI: > 100 µM
HT29 colon
  TGI: > 100 µM
MDA-MB-231 breast
  TGI: > 100 µM
RPMI-8226 leukemia
  TGI: > 100 µM
SK-MEL-5 melanoma
  TGI: 89.5 µM
UO-31 renal
  TGI: > 100 µM

## Nc1ccn([C@@H]2C(F)=C(CO)[C@@H](O)[C@H]2O)c(=O)n1
A549 NSCLC
  GI50: 0.42 µM
  TGI: > 100 µM
COLO 205 colon
  GI50: 0.838 µM
  TGI: > 100 µM
DU-145 prostate
  GI50: 0.445 µM
  TGI: > 100 µM
HS 578T breast
  GI50: 12.3 µM
  TGI: > 100 µM
HT29 colon
  GI50: 0.625 µM
  TGI: > 100 µM
MDA-MB-231 breast
  GI50: 2.73 µM
  TGI: > 100 µM
SK-MEL-5 melanoma
  GI50: 4.37 µM
  TGI: > 100 µM
UO-31 renal
  GI50: 0.462 µM
  TGI: > 100 µM

## Cc1cc([N+](=O)[O-])c(S(=O)(=O)c2ccccc2)c([N+](=O)[O-])c1
A549 NSCLC
  TGI: 41.3 µM
COLO 205 colon
  TGI: 24 µM
HOP-92 NSCLC
  TGI: 5.28 µM
HT29 colon
  TGI: 19.1 µM
RPMI-8226 leukemia
  TGI: 45.9 µM
SK-MEL-5 melanoma
  TGI: 27.8 µM
UO-31 renal
  TGI: 31 µM

## O=C(Nc1ccccc1O)c1ccc(CNC(=O)c2ccsc2Nc2ccnc(C(F)(F)F)c2)cc1
A549 NSCLC
  GI50: 3.21 µM
  TGI: 12.5 µM
COLO 205 colon
  GI50: 3.4 µM
  TGI: 13.4 µM
DU-145 prostate
  GI50: 2.12 µM
  TGI: 5.67 µM
HS 578T breast
  GI50: 2.71 µM
  TGI: 16.2 µM
HT29 colon
  GI50: 3.05 µM
  TGI: 12.6 µM
MDA-MB-231 breast
  GI50: 2.85 µM
  TGI: 13.2 µM
RPMI-8226 leukemia
  GI50: 1.14 µM
  TGI: 6.72 µM
SK-MEL-5 melanoma
  GI50: 1.69 µM
  TGI: 4.07 µM
UO-31 renal
  GI50: 1.32 µM
  TGI: 4.34 µM

## COc1ccc(CC2=NCCc3cc(OC)c(OC)cc32)cc1Br
A549 NSCLC
  TGI: > 100 µM
COLO 205 colon
  TGI: 37.4 µM
HOP-92 NSCLC
  TGI: 33.7 µM
HT29 colon
  TGI: > 100 µM
SK-MEL-5 melanoma
  TGI: 25.3 µM
UO-31 renal
  TGI: > 100 µM

## NC(N)=N/N=C/c1c(-c2ccc(Cl)c([N+](=O)[O-])c2)nc2n1CCS2
A549 NSCLC
  GI50: 16.1 µM
  TGI: 77.9 µM
COLO 205 colon
  GI50: 15.1 µM
  TGI: 39.8 µM
DU-145 prostate
  GI50: 14.5 µM
  TGI: 28.2 µM
HT29 colon
  GI50: 6.13 µM
  TGI: 30.9 µM
MDA-MB-231 breast
  GI50: 2.88 µM
  TGI: 8.86 µM
RPMI-8226 leukemia
  GI50: 3.66 µM
  TGI: 10.9 µM
SK-MEL-5 melanoma
  GI50: 15 µM
  TGI: 36.7 µM
UO-31 renal
  GI50: 26 µM
  TGI: 89 µM

## CCOC1=C2NC(Cc3ccc(F)cc3)=NC2C(=O)c2ccccc21 (stereo not given)
COLO 205 colon
  TGI: 87.5 µM
HOP-92 NSCLC
  TGI: 51.6 µM
HT29 colon
  TGI: 58.7 µM
RPMI-8226 leukemia
  TGI: 37.8 µM
UO-31 renal
  TGI: 25.1 µM

## COC(=O)C(C(=O)C(=O)NC1Nc2ccc(C)cc2S1)c1nc2ccc(Cl)cc2[nH]c1=O (stereo not given)
A549 NSCLC
  TGI: > 100 µM
HOP-92 NSCLC
  TGI: > 100 µM
HS 578T breast
  TGI: > 100 µM
HT29 colon
  TGI: > 100 µM
MDA-MB-231 breast
  TGI: > 100 µM
RPMI-8226 leukemia
  TGI: > 100 µM
SK-MEL-5 melanoma
  TGI: > 100 µM
UO-31 renal
  TGI: > 100 µM
